Measurements taken from patent US8829009B2, “Substituted 2-amino-3-(sulfonyl)pyrazolo[1,5-a]pyrimidines - serotonin 5-HT6 receptor antagonists, method for use thereof” (priority 2008, dated 2014).

What was measured:
5-HT6 receptor [1] = target: T1, 5-HT6 receptor (Homo sapiens (Human), UniProt P50406); assay: Functional assay: inhibition of serotonin-induced intracellular cAMP in HEK 293 cells expressing 5-HT6 receptor (LANCE cAMP); format: cell-based; conditions: for inhibition at 10 µM: HEK293, read-out: % inhibition of 5-HT6 receptors, 10 μM solutions of compounds; for IC50: HEK 293 cells expressing 5-HT6 receptor, read-out: IC50 inhibition of serotonin 5-HT6 receptors in the setting of functional assay (serotonin-stimulated intracellular cAMP production)
T1 sequence (P50406 whole entry): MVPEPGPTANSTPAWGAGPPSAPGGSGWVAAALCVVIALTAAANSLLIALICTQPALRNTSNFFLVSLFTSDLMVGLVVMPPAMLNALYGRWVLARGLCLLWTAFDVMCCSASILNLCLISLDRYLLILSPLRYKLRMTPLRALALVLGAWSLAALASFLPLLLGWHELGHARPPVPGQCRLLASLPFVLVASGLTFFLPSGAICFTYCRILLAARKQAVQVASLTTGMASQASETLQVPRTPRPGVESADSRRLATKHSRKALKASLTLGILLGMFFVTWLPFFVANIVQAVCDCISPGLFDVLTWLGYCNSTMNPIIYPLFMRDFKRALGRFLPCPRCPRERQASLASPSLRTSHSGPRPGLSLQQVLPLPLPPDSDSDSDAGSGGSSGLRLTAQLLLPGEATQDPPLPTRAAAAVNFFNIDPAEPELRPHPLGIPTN
Method: Determination of antagonistic activity of compounds of general formula 1 towards 5-HT6 receptors. Compounds of general formula 1 were tested for their ability to prevent 5-HT6 receptor activation by serotonin. HEK 293 cells (cells of human embryo's kidney) with artificially expressed 5-HT6 receptor, activation of which by serotonin leads to increasing the concentration of intracellular cAMP were used. The content of intracellular cAMP was determined using reagent kit LANCE cAMP (PerkinElmer) according to the method described by the manufacturer of the kit [http://las.perkinelmer.com/content/Manuals/MAN_LANCEcAMP384KitUser.pdf].
Effectiveness of compounds was estimated by their ability to reduce the content of intracellular cAMP induced by serotonin.

[2] = system: food consumption (appetite) in rats; assay: Appetite control test in food-deprived rats; format: in vivo, rat; conditions: Vistar rats, 16 h food deprivation, 10 mg/kg intraperitoneally 60 min before test (FIG. 2 legend: 1 mg/kg)
Method: Appetite control test. Male rats of Vistar line weighing 230-360 g were housed in standard home cages with water and food available with the exception of short periods of food deprivation (16 hs) just before the Appetite test. The Appetite test was carried out in individual cages with overhead cover made of wire in the niches of which a portion of food granules was inserted. Mass of the granules was examined every 30 minutes for 3 h. On the basis of these measurements food consumption was estimated and stated in grams of food per kilogram of body mass. Placebo and the compound 1.1(1) (dose 10 mg/kg) were injected intraperitoneally 60 minutes before the test. Each experimental group of animals consisted of 10 rats. Compound was dissolved in sterilized water. The injection volume was 10 ml/kg. Intact animals which were not undergone food deprivation, and animals after food deprivation, but injected with sterilized water, were used as control. […]

5-HT6 receptor [3] = target: T1, 5-HT6 receptor; assay: Competitive radioligand binding ([3H] Lysergic acid diethylamide) to membranes of HeLa cells expressing recombinant human 5-HT6 receptors
Method: Activity determination of serotonin 5-HT6 receptor antagonists of the general formula 1 in the setting of competitive binding to serotonin 5-HT6 receptors.
Screening of the disclosed compounds for their potential ability to interact with serotonin 5-HT6 receptors was carried out by method of radioligand binding. For this purpose membrane species were prepared from expressing recombinant human 5-HT6 receptors HeLa cells by means of their homogenization in glass homogenizer with subsequent separation of plasmatic membranes from cell nucli, mitochondria's and cell wreckages by differential centrifugation. Determination of tested compounds binding with 5-HT6 receptors was carried out according to the method described in [Monsma F J Jr, Shen Y, Ward R P, Hamblin M W and Sibley D R, Cloning and expression of a novel serotonin receptor with high affinity for tricyclic psychotropic drugs. Mol Pharmacol. 43:320-327, 1993]. […] After incubation the samples were filtered in vacuo on glass-microfiber filters G/F (Millipor, USA), filters were washed three times with cold solution of medium and radioactivity was measured by scintillation counter MicroBeta 340 (PerkinElmer, USA). […] Binding of tested compounds to the receptor was determined by their ability to displace the radioligand and expressed in percent of displacement. The percent of displacement was calculated according to the following equation:
[formula] wherein: TA—was overall radioactivity in the presence of radioligand only, CA—was radioactivity in the presence of radioligand and tested compound and NA—was radioactivity in the presence of radioligand and Serotonin (5 μM).

[4] = system: prepulse inhibition of startle in mice; assay: Prepulse inhibition of the startle response in mice (Apomorphine-induced disturbance); format: in vivo, mouse; conditions: SHK mice, 1 mg/kg, 60 min before test
Method: Antipsychotic activity of compounds of the general formula 1 in “Prepulse inhibition of the startle response in mice” test. Mice of SHK line weighing about 24-30 g were used in the test. Experiments were carried out during light period of animal's diurnal. Apomorphine hydrochloride and Haloperidol were received from Sigma Chemicals Company, (USA). Apomorphine hydrochloride was dissolved in 0.1% solution of ascorbic acid prepared with sterilized water; it was administered subcutaneously 15 minutes before the test. Haloperidol was dissolved in sterilized water using emulsifier Twin 80, it was administered intraperitoneally 60 minutes before the test. The compound 1.1(1) was dissolved in sterilized water, it was introduced subcutaneously 60 minutes before the test. Injection volume was 10 ml/kg. Solution of ascorbic acid prepared with sterilized water and Twin 80 were injected to control group of animals.
The test instrument consisted of a chamber made of transparent plexiglass (manufacturer—Columbia Instruments Company, USA) and placed on a platform the latter was lodged inside the sound insulating chamber. High frequency sound column transmitting acoustic stimulus was located 2 cm away from the platform. […] Inhibition of the startle in reply to prepulse-plus-pulse stimulus was calculated in percentage towards amplitude of startle in response to isolated pulse stimulus. […]

Structure (SMILES)	inhibition at 10 µM (5-HT6 receptor [1]) [%]	also measured
CNc1nn2c(C)cc(C)nc2c1S(=O)(=O)c1cccs1 [1(6)]	98	
Cc1cc(C)n2nc(N(C)C)c(S(=O)(=O)c3cccc(Cl)c3)c2n1 [1.1(8), 2-dimethylamino-5,7-dimethyl-3-(3-chlorophenylsulfonyl)pyrazolo[1,5-a]pyrimidine]	96	
Cc1cc(C)n2nc(N3CCN(C(=O)OC(C)(C)C)CC3)c(S(=O)(=O)c3ccccc3)c2n1 [1(11)]	63	
CNc1nn2c(C)cc(C)nc2c1S(=O)(=O)c1ccc(F)cc1 [1.1(3), 2-methylamino-5,7-dimethyl-3-(4-fluorophenylsulfonyl)pyrazolo[1,5-a]pyrimidine]	99	IC50 (5-HT6 receptor [1]): 6 nM
Cc1cc(C)n2nc(NCCCN(C)C)c(S(=O)(=O)c3ccccc3)c2n1 [1(10)]	94	
CCNc1nn2c(C)cc(C)nc2c1S(=O)(=O)c1ccccc1 [1(7)]	104	
Cc1cc(C)n2nc(N(C)C)c(S(=O)(=O)c3ccccc3)c2n1 [1.1(2), 2-dimethylamino-5,7-dimethyl-3-(phenylsulfonyl)pyrazolo[1,5-a]pyrimidine]	86	IC50 (5-HT6 receptor [1]): 1180 nM
Cc1cc(C)n2nc(N(C)C)c(S(=O)(=O)c3ccc(F)cc3)c2n1 [1.1(4), 2-dimethylamino-5,7-dimethyl-3-(4-fluorophenylsulfonyl)pyrazolo[1,5-a]pyrimidine]	95	
Cc1ccc(Nc2nn3c(C)cc(C)nc3c2S(=O)(=O)c2ccc(C)cc2)cc1 [1(14)]	70	
CNc1nn2c(C)cc(C)nc2c1S(=O)(=O)c1ccccc1 [1.1(1), 2-methylamino-5,7-dimethyl-3-(phenylsulfonyl)pyrazolo[1,5-a]pyrimidine]	77	effect on appetite (food consumption) after food deprivation [2]: capable to prevent appetite rising in rats; IC50 (5-HT6 receptor [3]; 1.5 nM [3H] Lysergic acid diethylamide, 120 min at 37° C., read-out: IC50 in the setting of competitive binding): 0.511 nM; Ki (5-HT6 receptor [3]; 1.5 nM [3H] Lysergic acid diethylamide, 120 min at 37° C., read-out: Ki in the setting of competitive binding): 0.237 nM; activity of serotonin 5-HT6 receptor antagonist (5-HT6 receptor [3]; quantity not specified, differs from Table 4): 4.61 nM; IC50 (5-HT6 receptor [1]): 5 nM; effect on disturbance of prepulse inhibition of startle caused by Apomorphine [4]: prevented disturbance of prepulse inhibition of startle caused by Apomorphine
Cc1ccc(S(=O)(=O)c2c(Nc3ccccc3)nn3c(C)c(C)c(C)nc23)cc1 [1(1)]	77	
Cc1cc(C)n2nc(N(C)C)c(S(=O)(=O)c3cccc(F)c3)c2n1 [1.1(6), 2-dimethylamino-5,7-dimethyl-3-(3-fluorophenylsulfonyl)pyrazolo[1,5-a]pyrimidine]	97	
CNc1nn2c(-c3ccccc3)cc(C)nc2c1S(=O)(=O)c1ccccc1 [1(2)]	90	
CNc1nn2c(C)cc(-c3ccccc3)nc2c1S(=O)(=O)c1ccccc1 [1(3)]	91	
Cc1cc(C)n2nc(NCCN(C)C)c(S(=O)(=O)c3ccccc3)c2n1 [1(8)]	91	
CNc1nn2c(C)cc(C)nc2c1S(=O)(=O)c1cccnc1 [1(5)]	95	
Cc1cc(C)n2nc(N(C)CCN(C)C)c(S(=O)(=O)c3ccccc3)c2n1 [1(9)]	88	
O=C(CCCN1CCC(O)(c2ccc(Cl)cc2)CC1)c1ccc(F)cc1 [Haloperidol, reference compound]		effect on disturbance of prepulse inhibition of startle caused by Apomorphine [4]: prevented disturbance of prepulse inhibition of startle caused by Apomorphine
CNc1nn2c(C)cc(C)nc2c1S(=O)(=O)c1ccc(F)c(Cl)c1 [1.1(9)]	97	IC50 (5-HT6 receptor [1]): 4 nM
Cc1cc(C)n2nc(N3CCN(C)CC3)c(S(=O)(=O)c3ccccc3)c2n1 [1(13)]	80	
Cc1cc(C)n2nc(N3CCNCC3)c(S(=O)(=O)c3ccccc3)c2n1 [1(12)]	76	
CNc1nn2c(C)cc(C)nc2c1S(=O)(=O)c1ccncc1 [1(4)]	97	
CNc1nn2c(C)cc(C)nc2c1S(=O)(=O)c1cccc(F)c1 [1.1(5), 2-methylamino-5,7-dimethyl-3-(3-fluorophenylsulfonyl)pyrazolo[1,5-a]pyrimidine]	97	IC50 (5-HT6 receptor [1]): 5 nM
CNc1nn2c(C)cc(C)nc2c1S(=O)(=O)c1cccc(Cl)c1 [1.1(7), 2-methylamino-5,7-dimethyl-3-(3-chlorophenylsulfonyl)pyrazolo[1,5-a]pyrimidine]	100	IC50 (5-HT6 receptor [1]): 2 nM
